Test results taken from ChEMBL document CHEMBL1201862, “PubChem BioAssay data set” (2004).
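Cells were grown in 96-well plates and exposed to each compound for 48 hours at five concentrations; endpoints were interpolated linearly between bracketing concentrations, or set to the highest concentration if not reached. GI50: concentration for 50% inhibition of growth.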 Calls of active or inactive are those of the source. Rule as the data show it: active = GI50 up to about 1.1 µM and inactive = higher. Non-standard residues stand in square brackets, D forms with d. Residues, ends and D or L forms follow the SMILES beside them. ξ: configuration not given here. *: point of attachment. dThr(3ξ) = CC(O)[C@@H](N)C(=O)O; dNMeL = CN[C@H](CC(C)C)C(=O)O; OBn = c1ccc(CO*)cc1; ξLac = CC(O)C(=O)O

Tests used:
Experiment in all cases: DTP human tumour cell line panel, 48 h
KM12 = system: KM12
MCF7 = system: MCF7
786-0 = system: 786-0
NCI-H23 = system: NCI-H23
NCI-H522 = system: NCI-H522
UACC-62 = system: UACC-62
EKVX = system: EKVX
K562 = system: K562
OVCAR-4 = system: OVCAR-4
TK-10 = system: TK-10
PC-3 = system: PC-3
Hs-578T = system: Hs-578T
HOP-62 = system: HOP-62
HCT-116 = system: HCT-116
OVCAR-3 = system: OVCAR-3
NCI/ADR-RES = system: NCI/ADR-RES
SF-295 = system: SF-295
SK-MEL-28 = system: SK-MEL-28
HT-29 = system: HT-29
SNB-78 = system: SNB-78

Measured: GI50

CCCCC(=O)Nc1ccc2cc(C(=O)OC)c(Cl)nc2n1
inactive: KM12 3.15 µM | MCF7 13.3 µM | 786-0 > 100 µM | NCI-H23 > 100 µM | NCI-H522 > 100 µM | UACC-62 > 100 µM | EKVX 59.7 µM | K562 > 100 µM | OVCAR-4 > 100 µM | TK-10 > 71.3 µM | PC-3 19.7 µM | Hs-578T 4.7 µM | HOP-62 7.11 µM | HCT-116 > 93.5 µM | OVCAR-3 7.59 µM | NCI/ADR-RES > 100 µM | SF-295 40.1 µM | SK-MEL-28 > 76.4 µM | HT-29 > 100 µM

O=C(/C=C/C(=O)N1CCCC1)N1CCCC1
inactive: KM12 > 100 µM | MCF7 > 100 µM | 786-0 > 100 µM | NCI-H23 > 100 µM | NCI-H522 > 100 µM | UACC-62 > 100 µM | EKVX > 100 µM | K562 > 100 µM | OVCAR-4 > 100 µM | TK-10 > 100 µM | PC-3 > 100 µM | Hs-578T > 100 µM | HOP-62 > 100 µM | HCT-116 > 100 µM | OVCAR-3 > 100 µM | NCI/ADR-RES > 100 µM | SF-295 > 100 µM | SK-MEL-28 > 100 µM | HT-29 > 100 µM

CC(=O)OC(C)[C@@H](NC(=O)[C@@H](CC(C)C)N(C)C(=O)[C@@H]1CCCN1C(=O)C(C)O)C(=O)OCc1ccccc1 (stereo partly specified) (H-[ξLac]P[dNMeL][dThr(3ξ)](Ac)-OBn)
inactive: KM12 > 100 µM | MCF7 > 100 µM | 786-0 > 100 µM | NCI-H23 > 100 µM | NCI-H522 > 100 µM | UACC-62 > 100 µM | EKVX > 100 µM | K562 > 100 µM | OVCAR-4 62.4 µM | TK-10 > 100 µM | PC-3 > 100 µM | Hs-578T > 100 µM | HOP-62 > 100 µM | HCT-116 > 100 µM | OVCAR-3 > 100 µM | NCI/ADR-RES > 100 µM | SF-295 > 100 µM | SK-MEL-28 > 100 µM | HT-29 > 100 µM

Clc1ncnc2c1nc(C#Cc1ccccc1)n2Cc1ccccc1
inactive: KM12 23.6 µM | MCF7 23 µM | 786-0 13.7 µM | NCI-H23 16.6 µM | NCI-H522 16.4 µM | UACC-62 30.5 µM | EKVX 13.3 µM | K562 3.67 µM | OVCAR-4 16.7 µM | TK-10 > 100 µM | PC-3 40.6 µM | Hs-578T 53 µM | HOP-62 24.7 µM | HCT-116 34 µM | OVCAR-3 3.99 µM | NCI/ADR-RES 60 µM | SF-295 > 100 µM | SK-MEL-28 18.8 µM | HT-29 24.3 µM

COc1cc2[nH]c(=O)c3cc(-c4ccccc4)cc4c(Cl)nc(c1OC)c2c43
inactive: KM12 20 µM | MCF7 2.36 µM | 786-0 6.59 µM | NCI-H23 15.3 µM | NCI-H522 3.77 µM | UACC-62 14.1 µM | EKVX 14 µM | K562 38.2 µM | OVCAR-4 9.27 µM | TK-10 29.6 µM | PC-3 4.86 µM | Hs-578T > 100 µM | HOP-62 32.6 µM | HCT-116 3.1 µM | OVCAR-3 3.79 µM | NCI/ADR-RES 7.35 µM | SF-295 > 49.4 µM | SK-MEL-28 32.1 µM | HT-29 3.92 µM

CN1CCN(c2ccc(-n3cc(C(=O)O)c(=O)c4cc(F)c(N5CCN(C)CC5)cc43)nc2)CC1
inactive: KM12 33.6 µM | MCF7 > 100 µM | 786-0 64.7 µM | NCI-H23 > 100 µM | NCI-H522 78.5 µM | UACC-62 > 100 µM | EKVX > 100 µM | K562 62.8 µM | OVCAR-4 > 100 µM | TK-10 > 100 µM | PC-3 > 100 µM | Hs-578T > 100 µM | HOP-62 > 100 µM | HCT-116 69.3 µM | OVCAR-3 > 100 µM | NCI/ADR-RES > 100 µM | SF-295 > 100 µM | SK-MEL-28 > 100 µM | HT-29 65.5 µM

NC(=O)c1ccccc1NC(=O)C(=O)C(C(=O)c1ccc(Cl)c(Cl)c1)C1OC(=O)c2ccccc21 (stereo unspecified)
inactive: KM12 60.4 µM | 786-0 48.8 µM | NCI-H23 39.5 µM | UACC-62 30.8 µM | EKVX > 100 µM | K562 > 100 µM | SNB-78 39.2 µM | OVCAR-4 43.3 µM | HOP-62 43.8 µM | HCT-116 18.7 µM | OVCAR-3 35.1 µM | HT-29 34.8 µM
